Legend:
P. infestans = assay: microbe, parasite or virus in culture; assay type: cell-based, Phytophthora infestans; conditions: for inhibition of growth at 5 µg/mL / inhibition of growth at 10 µg/mL / inhibition of growth at 25 µg/mL / inhibition of growth at 50 µg/mL: Phytophthora infestans, 24 h, read-out: Aktivität gegenüber P. infestans
Penicillium notatum = assay: Growth test in microtiter plates, HA medium, 24 h, visual evaluation; assay type: cell-based; design: key: +: kein Wachstum im Vergleich zur Wachstumskontrolle; -: Wachstum wie Wachstumskontrolle
Paecilomyces variotii = assay: as above; assay type: cell-based; design: key: +: kein Wachstum im Vergleich zur Wachstumskontrolle; -: Wachstum wie Wachstumskontrolle
Mucor miehei = assay: as above; assay type: cell-based; design: key to Aktivität gegenüber M. miehei: +: kein Wachstum im Vergleich zur Wachstumskontrolle; -: Wachstum wie Wachstumskontrolle
M. grisea CM = assay: microbe, parasite or virus in culture; assay type: cell-based, Magnaporthe grisea; conditions: Pyricularia grisea, 24 h, read-out: Aktivität gegenüber M. grisea CM
Lepidium sativum = assay: Crop plant growth test, seeds on filter discs, 4 days, visual evaluation; assay type: in vivo
Procedure: (§1) Testsubstanzen und Kontrollen werden auf Filterrondellen in Mikrotiterplatten (48 well) vorgelegt und das verwendete Lösungsmittel (DMSO) über Lyophilisation entfernt. Anschließend werden ca. 12 Samen pro Vertiefung (Setaria italical Lepidium sativum) zugeben, mit 200 µl sterilem Leitungswasser pro Vertiefung versetzt, mit einem Deckel versehen und in einer feuchten Kammer für 4 Tage im Pflanzenbrutschrank inkubiert (16h-Licht-8h-Dunkel-Rhythmus). Die Auswertung des Tests erfolgt optisch (+: mind. 75 % Wachstumshemmung im Vergleich zur Kontrolle, -: weniger als 75 % Wachstumshemmung im Vergleich zur Kontrolle.

Setaria italica = assay: as above; assay type: in vivo
Procedure: as §1

Candida albicans = assay: Growth test in microtiter plates, HA medium, 24 h, visual evaluation; assay type: cell-based; design: key: +: kein Wachstum im Vergleich zur Wachstumskontrolle; -: Wachstum wie Wachstumskontrolle
Botrytis cinerea = assay: microbe, parasite or virus in culture; assay type: cell-based; conditions: for inhibition of growth at 5 µg/mL / inhibition of growth at 10 µg/mL / inhibition of growth at 25 µg/mL / inhibition of growth at 50 µg/mL: Botrytis cinerea, 24 h, read-out: Aktivität gegenüber B. cinerea
M. grisea H2O = assay: microbe, parasite or virus in culture; assay type: cell-based, Magnaporthe grisea; conditions: Pyricularia grisea, H2O, 24 h, read-out: Aktivität gegenüber M. grisea H2O

SMILES	inhibition of growth at 5 µg/mL (P. infestans) [%]	inhibition of growth at 10 µg/mL (P. infestans) [%]	inhibition of growth at 25 µg/mL (P. infestans) [%]	inhibition of growth at 50 µg/mL (P. infestans) [%]	Aktivität gegenüber P. notatum (Penicillium notatum; 10µg/mL)	Aktivität gegenüber P. notatum (Penicillium notatum; 50µg/mL)	Aktivität gegenüber P. variotii (Paecilomyces variotii; 10µg/mL)	Aktivität gegenüber P. variotii (Paecilomyces variotii; 50µg/mL)	Aktivität gegenüber M. miehei (Mucor miehei; 10µg/mL)	Aktivität gegenüber M. miehei (Mucor miehei; 50µg/mL)	inhibition of growth at 5 µg/mL (M. grisea CM) [%]	inhibition of growth at 10 µg/mL (M. grisea CM) [%]	inhibition of growth at 25 µg/mL (M. grisea CM) [%]	inhibition of growth at 50 µg/mL (M. grisea CM) [%]	Aktivität gegenüber Nutzpflanzen: L. sativum (Lepidium sativum; 10µg/R)	Aktivität gegenüber Nutzpflanzen: L. sativum (Lepidium sativum; 20µg/R)	Aktivität gegenüber Nutzpflanzen: L. sativum (Lepidium sativum; 50µg/R)	Aktivität gegenüber Nutzpflanzen: S. italica (Setaria italica; 10µg/R)	Aktivität gegenüber Nutzpflanzen: S. italica (Setaria italica; 20µg/R)	Aktivität gegenüber Nutzpflanzen: S. italica (Setaria italica; 50µg/R)	further results
Cc1cc(Cl)cc([Se]c2cc(Cl)cc(C)c2O)c1O [Verbindung 22, Bis(3-chlor-6-hydroxy-5-methylphenyl)selen]	0 to 25	> 75	> 75	> 75	-	-	-	-	-	-	> 75	> 75	> 75	> 75	- (weniger als 75 % Wachstumshemmung im Vergleich zur Kontrolle)	- (weniger als 75 % Wachstumshemmung im Vergleich zur Kontrolle)	- (weniger als 75 % Wachstumshemmung im Vergleich zur Kontrolle)	- (weniger als 75 % Wachstumshemmung im Vergleich zur Kontrolle)	- (weniger als 75 % Wachstumshemmung im Vergleich zur Kontrolle)	- (weniger als 75 % Wachstumshemmung im Vergleich zur Kontrolle)	Aktivität gegenüber C. albicans (Candida albicans; 10µg/mL): -; Aktivität gegenüber C. albicans (Candida albicans; 50µg/mL): -; mikrobizide Wirksamkeit gegenüber B. cinerea (Botrytis cinerea): mikrobizide Wirksamkeit; inhibition of growth at 5 µg/mL (Botrytis cinerea): > 75%; inhibition of growth at 10 µg/mL (Botrytis cinerea): > 75%; inhibition of growth at 25 µg/mL (Botrytis cinerea): > 75%; inhibition of growth at 50 µg/mL (Botrytis cinerea): > 75%; inhibition of growth at 5 µg/mL (M. grisea H2O): > 75%; inhibition of growth at 10 µg/mL (M. grisea H2O): > 75%; inhibition of growth at 25 µg/mL (M. grisea H2O): > 75%; inhibition of growth at 50 µg/mL (M. grisea H2O): > 75%
Cc1cc(Br)c(O)c([Se]c2cc(C)cc(Br)c2O)c1 [Verbindung 23, Bis(3-brom-2-hydroxy-5-methylphenyl)selen]	0 to 25	0 to 25	0 to 25	0 to 25	-	-	-	-	-	-	> 75	> 75	> 75	> 75	- (weniger als 75 % Wachstumshemmung im Vergleich zur Kontrolle)	- (weniger als 75 % Wachstumshemmung im Vergleich zur Kontrolle)	- (weniger als 75 % Wachstumshemmung im Vergleich zur Kontrolle)	- (weniger als 75 % Wachstumshemmung im Vergleich zur Kontrolle)	- (weniger als 75 % Wachstumshemmung im Vergleich zur Kontrolle)	- (weniger als 75 % Wachstumshemmung im Vergleich zur Kontrolle)	Wirksamkeit gegenüber P. infestans (P. infestans): keine Wirkung; Aktivität gegenüber C. albicans (Candida albicans; 10µg/mL): -; Aktivität gegenüber C. albicans (Candida albicans; 50µg/mL): -; inhibition of growth at 5 µg/mL (Botrytis cinerea): 0 to 25%; inhibition of growth at 10 µg/mL (Botrytis cinerea): 0 to 25%; inhibition of growth at 25 µg/mL (Botrytis cinerea): 0 to 25%; inhibition of growth at 50 µg/mL (Botrytis cinerea): 0 to 25%; inhibition of growth at 5 µg/mL (M. grisea H2O): 0 to 25%; inhibition of growth at 10 µg/mL (M. grisea H2O): 25 to 50%; inhibition of growth at 25 µg/mL (M. grisea H2O): > 75%; inhibition of growth at 50 µg/mL (M. grisea H2O): > 75%
Cc1c(Cl)cc(C(C)C)c(O)c1[Se]c1c(C)c(Cl)cc(C(C)C)c1O [Verbindung 21, Bis(3-chlor-6-hydroxy-5-isopropyl-2-methylphenyl)selen]	0 to 25	0 to 25	0 to 25	0 to 25	-	-	-	-	-	-	50 to 75	> 75	> 75	> 75	- (weniger als 75 % Wachstumshemmung im Vergleich zur Kontrolle)	- (weniger als 75 % Wachstumshemmung im Vergleich zur Kontrolle)	- (weniger als 75 % Wachstumshemmung im Vergleich zur Kontrolle)	- (weniger als 75 % Wachstumshemmung im Vergleich zur Kontrolle)	- (weniger als 75 % Wachstumshemmung im Vergleich zur Kontrolle)	- (weniger als 75 % Wachstumshemmung im Vergleich zur Kontrolle)	Wirksamkeit gegenüber P. infestans (P. infestans): keine Wirkung; Aktivität gegenüber C. albicans (Candida albicans; 10µg/mL): -; Aktivität gegenüber C. albicans (Candida albicans; 50µg/mL): -; inhibition of growth at 5 µg/mL (Botrytis cinerea): 0 to 25%; inhibition of growth at 10 µg/mL (Botrytis cinerea): 0 to 25%; inhibition of growth at 25 µg/mL (Botrytis cinerea): 0 to 25%; inhibition of growth at 50 µg/mL (Botrytis cinerea): 0 to 25%; inhibition of growth at 5 µg/mL (M. grisea H2O): 25 to 50%; inhibition of growth at 10 µg/mL (M. grisea H2O): > 75%; inhibition of growth at 25 µg/mL (M. grisea H2O): > 75%; inhibition of growth at 50 µg/mL (M. grisea H2O): > 75%

Reference: patent EP3262942A1, “SELENODIARYLS FOR USE AS MICROBICIDE OR AS MEDICINE” (Evonik Degussa GmbH, priority 2016, dated 2018)
